From patent EP4596537A1, “NOVEL FLUORENE DERIVATIVE COMPOUND AND USE THEREOF” (JD Bioscience Inc., priority 2022, dated 2024)

Tested on: H9C2 cells
Assay: Myocardial infarction cell model (hypoxia-reoxygenation)
Format: cell-based, rat
Settings: 1 µM
Protocol: H9C2 cells, which are a rat […] cell line, were seeded at a density of 3 × 10^3 cells/well in a 96-well plate and cultured for 24 hours. The next day, the medium was replaced with FBS-free DMEM and cultured for an additional 24 hours. After replacing the medium with FBS-free DMEM again, 1 µM of Compound 1 was treated and cultured in a hypoxia chamber (1% oxygen, 5% CO2) for 2 hours (hypoxia). After replacing the medium with DMEM with 10% FBS, 1 µM of Compound 1 was treated and cultured in a CO2 incubator for 1 hour (reoxygenation). Apoptosis, mitochondrial superoxide levels, and intracellular calcium levels were measured, and the results are shown in FIGS. 4 and 5, respectively.

## CC(C(=O)NNc1ccc(F)cc1)n1cc(-c2cc(F)cc3c2-c2ccccc2C3(O)C(F)(F)F)cn1 (stereo not drawn) [Example 1, 2-(4-(2-fluoro-9-hydroxy-9-(trifluoromethyl)-9H-fluoren-4-yl)-1H-pyrazol-1-yl)-N'-(4-fluorophenyl)propanehydrazide]
hypoxia-reoxygenation
  intracellular calcium (Rhod2 staining): remarkably reduced
  mitochondrial superoxide (MitoSOX staining): remarkably reduced
hypoxia-reoxygenation (H/R)
  apoptosis (TUNEL staining): markedly reduced
